In US7592359B2, “Substituted azabicyclo hexane derivatives as muscarinic receptor antagonists” (Ranbaxy Laboratories Limited, priority 2003, dated 2009):

Legend:
M2 muscarinic receptor = target: T1, M2 muscarinic receptor (Rattus norvegicus, UniProt P10980); assay: Radioligand binding assay, [3H]-N-methylscopolamine, rat heart membranes; details: [3H]-NMS binding, read-out: Receptor Binding Assay pKi M2 (converted)
T1 construct: Submandibular glands and heart were isolated and placed in ice cold homogenising buffer; from tissue; host or cells: rat heart membrane homogenate
T1 sequence (P10980 1-466): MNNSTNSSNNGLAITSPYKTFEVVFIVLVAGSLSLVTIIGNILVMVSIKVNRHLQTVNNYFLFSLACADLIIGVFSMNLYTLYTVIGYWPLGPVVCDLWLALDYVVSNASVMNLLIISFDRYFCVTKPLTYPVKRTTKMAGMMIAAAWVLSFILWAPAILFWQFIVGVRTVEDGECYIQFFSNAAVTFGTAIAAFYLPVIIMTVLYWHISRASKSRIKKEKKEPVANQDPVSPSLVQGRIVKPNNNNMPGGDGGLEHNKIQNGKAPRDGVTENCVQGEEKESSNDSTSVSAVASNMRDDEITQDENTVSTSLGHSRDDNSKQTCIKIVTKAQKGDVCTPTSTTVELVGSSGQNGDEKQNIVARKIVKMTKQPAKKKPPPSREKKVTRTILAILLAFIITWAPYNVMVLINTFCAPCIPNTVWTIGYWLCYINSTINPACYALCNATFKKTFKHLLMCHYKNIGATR
Method: (§1) Membrane preparation: Submandibular glands and heart were isolated and placed in ice cold homogenising buffer (HEPES 20 mM, 10 mM EDTA, pH 7.4) immediately after sacrifice. The tissues were homogenised in 10 volumes of homogenising buffer and the homogenate was filtered through two layers of wet gauze and filtrate was centrifuged at 500 g for 10 min. The supernatant was subsequently centrifuged at 40,000 g for 20 min. The pellet thus obtained was resuspended in same volume of assay buffer (HEPES 20 mM, EDTA 5 mM, pH 7.4) and were stored at −70° C. until the time of assay.
(§2) Ligand binding assay The compounds were dissolved and diluted in DMSO. The membrane homogenates (150-250 μg protein) were incubated in 250 μl of assay buffer (HEPES 20 mM, pH 7.4) at 24-25° C. for 3 hours. Non-specific binding was determined in the presence of 1 μM atropine. The incubation was terminated by vacuum filtration over GF/B fiber filters (Wallac). The filters were then washed with ice cold 50 mM Tris HCl buffer (pH 7.4). The filter mats were dried and bound radioactivity retained on filters was counted. The IC50 & Kd were estimated by using the non-linear curve fitting program using G Pad Prism software.

M3 muscarinic receptor = target: T2, M3 muscarinic receptor (Rattus norvegicus, UniProt P08483); assay: Radioligand binding assay, [3H]-N-methylscopolamine, rat submandibular gland membranes; details: [3H]-NMS binding, read-out: Receptor Binding Assay pKi M3 (converted)
T2 construct: Submandibular glands and heart were isolated and placed in ice cold homogenising buffer; from tissue; host or cells: rat submandibular gland membrane homogenate
T2 sequence (P08483 whole entry): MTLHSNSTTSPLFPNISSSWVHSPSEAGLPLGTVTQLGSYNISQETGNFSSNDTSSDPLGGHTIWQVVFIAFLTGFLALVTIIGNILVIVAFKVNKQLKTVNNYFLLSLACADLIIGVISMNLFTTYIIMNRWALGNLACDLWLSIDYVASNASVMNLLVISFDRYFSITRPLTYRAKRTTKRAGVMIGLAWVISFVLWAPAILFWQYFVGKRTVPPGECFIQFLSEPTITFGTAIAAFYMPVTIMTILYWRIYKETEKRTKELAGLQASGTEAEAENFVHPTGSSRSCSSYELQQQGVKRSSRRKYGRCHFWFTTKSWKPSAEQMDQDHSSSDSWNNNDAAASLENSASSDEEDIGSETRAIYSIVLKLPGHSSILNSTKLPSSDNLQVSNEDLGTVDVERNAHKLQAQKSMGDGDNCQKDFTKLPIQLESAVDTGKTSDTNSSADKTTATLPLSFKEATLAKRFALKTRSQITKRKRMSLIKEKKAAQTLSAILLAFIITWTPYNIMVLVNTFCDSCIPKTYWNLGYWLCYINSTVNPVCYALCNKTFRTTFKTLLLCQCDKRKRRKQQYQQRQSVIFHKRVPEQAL
Method: as §1, §2

Ki (M2 muscarinic receptor): 15.8 µM
Ki (M3 muscarinic receptor): 7.94 µM
Structure (SMILES): O=C(NC12CC1CN(Cc1ccccc1)C2)C(CO)c1ccccc1 (stereo not drawn) [Compound No. 4, (1α,5α)-N-[3-benzyl-3-azabicyclo[3.1.0]hex-1-yl]-2-hydroxymethyl-2-phenylacetamide]
